Data: patent US10221163B2 (priority 2015, dated 2019)
Structures can show the parent of a compound that is named as a salt. Where two headings read alike, the source gives them in different places.

How the values were obtained:
IMP-1 = IMP-1 (Serratia marcescens, UniProt P52699); assay: biochemical; type: biochemical; conditions: CCF2-FA substrate, 2 pM enzyme, 2 hours at 25° C.
Summary of the method: (§1)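 Test compound, enzyme and the FRET cephalosporin substrate CCF2-FA are incubated together for 2 hours at 25° C. Cleavage is followed by fluorescence, and IC50 values are derived from semi-logarithmic inhibition curves fitted with a 4-parameter model.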

NDM-1 = NDM-1 (Klebsiella pneumoniae, UniProt C7C422); assay: biochemical; type: biochemical; conditions: fluorescence assay, CCF2-FA substrate, 1 pM enzyme, 2 hours at 25° C., read-out: NDM-1 IC50
Chain of NDM-1 (C7C422 whole entry, looked up, species assumed): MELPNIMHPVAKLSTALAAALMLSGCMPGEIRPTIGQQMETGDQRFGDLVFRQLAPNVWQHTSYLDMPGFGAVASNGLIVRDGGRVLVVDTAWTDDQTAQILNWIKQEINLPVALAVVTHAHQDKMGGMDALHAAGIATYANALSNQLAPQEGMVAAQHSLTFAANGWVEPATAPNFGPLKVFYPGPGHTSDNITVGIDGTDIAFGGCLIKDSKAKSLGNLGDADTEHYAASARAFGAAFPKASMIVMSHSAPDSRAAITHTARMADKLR
Summary of the method: as §1

VIM-1 = VIM-1 (Pseudomonas aeruginosa (strain ATCC 15692 / DSM 22644 / CIP 104116 / JCM 14847 / LMG 12228 / 1C / PRS 101 / PAO1), UniProt A0A0F7KYQ8); assay: biochemical; conditions: CCF2-FA substrate, 30 pM enzyme, 2 hours at 25° C.
Summary of the method: as §1

[1] = system: Escherichia coli expressing NDM-1 (CLB30005, CLB30016); type: cell-based; conditions: with imipenem 1 μg/ml; for Escherichia coli MITC95: NDM-1 strain, 95% inhibition of growth; for Escherichia coli expressing NDM-1 (CLB30016) MITC95: 95% inhibition of bacterial growth
Summary of the method: (§2)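 Colonies grown overnight on blood agar at 35° C were suspended in saline, diluted 1:100 into 1.1×CAMHB and dispensed. Imipenem was added to 1 μg/ml, then test compound. After 22 hours to 24 hours at 35° C, absorbance was recorded.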

[2] = system: Klebsiella pneumoniae expressing VIM-1 (IHMA599644); type: cell-based; conditions: for Klebsiella pneumoniae MITC95: VIM-1 strain IHMA599644, with imipenem 1 μg/ml, 95% inhibition of growth; for Klebsiella pneumoniae expressing VIM-1 (IHMA599644) MITC95: with imipenem 1 μg/ml, 95% inhibition of bacterial growth
Summary of the method: as §2

[3] = system: Serratia marcescens expressing IMP-1 (CL5741); type: cell-based; conditions: for Serratia marcescens MITC95: IMP-1 strain CL5741, with imipenem 1 μg/ml, 95% inhibition of growth; for Serratia marcescens expressing IMP-1 (CL5741) MITC95: with imipenem 1 μg/ml, 95% inhibition of bacterial growth
Summary of the method: as §2

[4] = system: Pseudomonas aeruginosa efflux+ (MB9798), IMP-1; type: cell-based; design: Concentration of metallo-β-lactamase inhibitor which restores susceptibility of efflux + (MB9798) strain to imipenem: unit not given here; conditions: C, D serine β-lactamase inhibitor closely related to relebactam; for P. aeruginosa expressing IMP-1, efflux + (MB9798) MITC95: concentration restoring susceptibility to imipenem at 2 μg/mL in the presence of a class A
Summary of the method: (§3)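 Steps: add fixed imipenem and/or ceftazidime (usually CLSI breakpoint) and fixed AmpC-directed class A/C inhibitor to microbroth MIC wells; titrate MBL inhibitor; record concentration regaining susceptibility for each PAO1-derived strain; divide efflux+ by efflux− value.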

[5] = system: Pseudomonas aeruginosa efflux− (MB9799), IMP-1; type: cell-based; conditions: C, D serine β-lactamase inhibitor closely related to relebactam; for P. aeruginosa expressing IMP-1, efflux − (MB9799) MITC95: concentration restoring susceptibility to imipenem at 2 μg/mL in the presence of a class A
Summary of the method: as §3

[6] = system: Pseudomonas aeruginosa MB9798 vs MB9799
Description: The strain background was Pseudomonas aeruginosa PAO1.
The strain set was then used as a pair to determine the effect of metallo-β-lactamase inhibitors of Formula I on the MIC of imipenem and/or ceftazidime. A fixed concentration of antibiotic was included in standard microbroth MIC tests, usually at the CLSI (Clinical and Laboratory Standards Institute) breakpoint concentration. A fixed amount of a class A/C beta-lactamase inhibitor was also included to inhibit the resident Pseudomonas AmpC enzyme. A serial titration of the metallo-β-lactamase inhibitor was included and the concentration of metallo-β-lactamase inhibitor which restores susceptibility of the strain to the included antibiotic was recorded. That concentration of metallo-β-lactamase inhibitor was then compared between the two strains to determine the fold difference between the efflux+ (MB9798) and efflux− (MB9799) strains. This was taken as an indication of the extent to which the MBLi is subject to efflux.

[7] = fluorescence assay, read-out: IMP-1 IC50
[8] = ratio MITC95 PA_9798/MITC95 PA_9799
[9] = fluorescence assay, read-out: VIM-1 IC50

Chain of IMP-1 (P52699 whole entry, looked up, species assumed): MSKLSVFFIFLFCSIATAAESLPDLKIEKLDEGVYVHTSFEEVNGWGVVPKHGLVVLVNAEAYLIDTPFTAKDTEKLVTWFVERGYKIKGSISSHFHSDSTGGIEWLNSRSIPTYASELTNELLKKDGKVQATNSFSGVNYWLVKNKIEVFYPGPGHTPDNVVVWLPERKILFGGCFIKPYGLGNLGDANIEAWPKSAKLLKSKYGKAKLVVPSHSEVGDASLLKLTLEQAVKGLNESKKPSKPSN

| Compound | IC50 (IMP-1; [7]) [nM] | IC50 (NDM-1) [nM] | IC50 (VIM-1; VIM-1 IC50, fluorescence assay) [nM] | Escherichia coli MITC95 [1] [µM] | Klebsiella pneumoniae MITC95 [2] [µM] | Serratia marcescens MITC95 [3] [µM] | P. aeruginosa expressing IMP-1, efflux + (MB9798) MITC95 [4] [µM] | P. aeruginosa expressing IMP-1, efflux − (MB9799) MITC95 [5] [µM] | Efflux ratio [6, 8] | IC50 (IMP-1; fluorescence assay, dihydrochloride, read-out: IMP-1 IC50) [nM] | IC50 (NDM-1; dihydrochloride) [nM] | Escherichia coli MITC95 ([1]; dihydrochloride) [µM] | Concentration of metallo-β-lactamase inhibitor which restores susceptibility of efflux + (MB9798) strain to imipenem ([4]; efflux+ MB9798, imipenem at 2 μg/mL, in the presence of a class A) | Concentration of metallo-β-lactamase inhibitor which restores susceptibility of efflux − (MB9799) strain to imipenem ([5]; efflux− MB9799, imipenem at 2 μg/mL, in the presence of a class A, dihydrochloride) | Efflux ratio ([6]; fold difference between efflux+ (MB9798) and efflux− (MB9799) strains, imipenem at 2 μg/mL, dihydrochloride) | IC50 (VIM-1; [9]) [nM] | Escherichia coli expressing NDM-1 (CLB30016) MITC95 [1] [µM] | Klebsiella pneumoniae expressing VIM-1 (IHMA599644) MITC95 [2] [µM] | Serratia marcescens expressing IMP-1 (CL5741) MITC95 [3] [µM] | IC50 (IMP-1; IMP-1 IC50, fluorescence assay) [nM] |
| --- | --- | --- | --- | --- | --- | --- | --- | --- | --- | --- | --- | --- | --- | --- | --- | --- | --- | --- | --- | --- |
| NCCNS(=O)(=O)c1ccc(-c2cccc(C(=O)NCC(O)CN)c2)c(-c2nn[nH]n2)c1S(N)(=O)=O (stereo in doubt) [Example 347, (S)—N-(3-amino-2-hydroxypropyl)-4′-(N-(2-aminoethyl)sulfamoyl)-3′-sulfamoyl-2′-(2H-tetrazol-5-yl)[1,1′-biphenyl]-3-carboxamide] | 3.97 | 2.04 | 0.536 | 1.563 | 1.563 | 1.563 | 1.563 | 0.7813 | 2.00 |  |  |  |  |  |  |  |  |  |  |  |
| NCC1(NS(=O)(=O)c2ccc(-c3ccc(N)nc3)c(-c3nn[nH]n3)c2S(N)(=O)=O)CCNC1 (stereo in doubt) [Example 486, (R)-N1-(3-(aminomethyl)pyrrolidin-3-yl)-4-(6-aminopyridin-3-yl)-3-(2H-tetrazol-5-yl)benzene-1,2-disulfonamide dihydrochloride] |  |  | 0.321 |  | 1.563 | 0.7813 |  |  |  | 0.422 | 0.176 | 0.7813 | 1.563 | 0.7813 | 2.00 |  |  |  |  |  |
| Nc1nc2cccc(-c3ccc(S(N)(=O)=O)c(S(N)(=O)=O)c3-c3nn[nH]n3)c2[nH]1 [Example 1, 4-(2-amino-3H-benzo[d]imidazol-4-yl)-3-(2H-tetrazol-5-yl)benzene-1,2-disulfonamide] | 0.581 | 0.0853 |  |  |  |  | 0.5573 | 0.8542 | 0.65 |  |  |  |  |  |  | 0.264 | 0.5156 | 1.448 | 0.8542 |  |
| Nc1ccc2cccc(-c3ccc(S(N)(=O)=O)c(S(N)(=O)=O)c3-c3nn[nH]n3)c2n1 [Example 2, 4-(2-aminoquinolin-8-yl)-3-(2H-tetrazol-5-yl)benzene-1,2-disulfonamide] | 0.279 | 0.163 |  |  |  |  | 0.7813 | 0.7813 | 1.00 |  |  |  |  |  |  | 0.462 | 0.7813 | 1.563 | 0.7813 |  |
| NS(=O)(=O)c1ccc(-c2cccc3cn[nH]c23)c(-c2nn[nH]n2)c1S(N)(=O)=O [Example 3, 4-(1H-indazol-7-yl)-3-(2H-tetrazol-5-yl)benzene-1,2-disulfonamide] | 0.233 | 0.151 |  |  |  |  | 3.125 | 1.563 | 2.00 |  |  |  |  |  |  | 0.258 | 3.125 | 6.25 | 1.563 |  |
| Nc1nc2c(-c3ccc(S(N)(=O)=O)c(S(N)(=O)=O)c3-c3nn[nH]n3)cccc2o1 [Example 4, 4-(2-aminobenzo[d]oxazol-4-yl)-3-(2H-tetrazol-5-yl)benzene-1,2-disulfonamide] | 0.354 | 0.136 |  |  |  |  | 1.563 | 1.563 | 1.00 |  |  |  |  |  |  | 0.237 | 3.125 | 3.125 | 1.563 |  |
| Cn1c(N)nc2c(-c3ccc(S(N)(=O)=O)c(S(N)(=O)=O)c3-c3nn[nH]n3)cccc21 [Example 5, 4-(2-amino-1-methyl-1H-benzo[d]imidazol-4-yl)-3-(2H-tetrazol-5-yl)benzene-1,2-disulfonamide] | 0.346 | 0.197 |  |  |  |  | 1.781 | 0.8906 | 2.00 |  |  |  |  |  |  | 0.146 | 0.25 | 1.781 | 0.8906 |  |
| Cc1ccc(-c2ccc(S(N)(=O)=O)c(S(N)(=O)=O)c2-c2nn[nH]n2)c2nc(N)sc12 [Example 6, 4-(2-amino-7-methylbenzo[d]thiazol-4-yl)-3-(2H-tetrazol-5-yl)benzene-1,2-disulfonamide] | 0.0648 | 0.0269 |  |  |  |  | 1.563 | 1.563 | 1.00 |  |  |  |  |  |  | 0.0915 | 6.25 | 6.25 | 1.563 |  |
| CNS(=O)(=O)c1ccc(-c2cccc3cn[nH]c23)c(-c2nn[nH]n2)c1S(N)(=O)=O [Example 7, 4-(1H-indazol-7-yl)-N1-methyl-3-(2H-tetrazol-5-yl)benzene-1,2-disulfonamide] |  | 0.101 |  |  |  |  | 25 | 1.563 | 15.99 |  |  |  |  |  |  | 0.108 | 6.25 | 6.25 | 3.125 | 0.214 |
| NS(=O)(=O)c1ccc(-c2cccc3[nH]c(C(=O)O)nc23)c(-c2nn[nH]n2)c1S(N)(=O)=O [Example 8, 4-(3,4-disulfamoyl-2-(2H-tetrazol-5-yl)phenyl)-1H-benzo[d]imidazole-2-carboxylic acid] | 0.361 | 0.123 |  |  |  |  | 1.563 | 1.563 | 1.00 |  |  |  |  |  |  | 0.287 | 1.563 | 6.25 | 3.125 |  |
| NCCNS(=O)(=O)c1ccc(-c2cccc3cn[nH]c23)c(-c2nn[nH]n2)c1S(N)(=O)=O [Example 9, N^1-(2-aminoethyl)-4-(1H-indazol-7-yl)-3-(2H-tetrazol-5-yl)benzene-1,2-disulfonamide] | 0.171 | 0.0844 |  |  |  |  | 0.3906 | 0.7813 | 0.50 |  |  |  |  |  |  | 0.133 | 0.7813 | 1.563 | 1.563 |  |
